Measurements: ChEMBL document CHEMBL5728179, “Triazolopyridines” (2020)

Assay: Cellular gamma-Secretase Assay: Human neuroglioma H4 cells overexpressing human APP695 with the Swedish double mutation (K595N/M596L) were plated at 30,000 cells/well/100 μl in 96-well plates in IMDM media containing 10% FCS, […] Hygromycin B and incubated at 37° C., 5% CO2.3-4 hr post plating, compounds are a diluted in media and 50 μl is added as 1.5-fold concentrate to achieve the final concentration. Compound incubation is performed for 24 hr. Final doses typically range from 4 μM down to 0.0013 μM in half-log steps resulting in a eight point dose response curve.Appropriate controls using vehicle only and reference compound were applied to this assay. The final concentration of Me2SO was 0.4%.After incubation at 37° C., 5% CO2, the supernatant was subjected to quantification of secreted Aβ42 by the means of an AlphaLisa assay kit (Human Amyloid beta 1-42 Kit: Cat #AL203C, Perkin Elmer). 20 μl of the cell culture supernatant was transferred to an assay plate. Then 10 μl of a mixture of the AlphaLisa coupled capture antibody and the biotinylated detection antibody was added and incubated for 3 hours at room temperature while softly shaking the assay plate. After a further addition of 20 μl of the Donor beads the assay plate was incubated for 30 min at room temperature and constant shaking without exposure to direct light. The assay plate was then read on a Paradigm AlphaLisa Reader using the build-in program with excitation at 680 nm and emission at 570 nm.The measured signals were then used to calculate IC50 values for inhibition of Aβ42 secretion by nonlinear regression fit analysis using XLfit 5.3 software (IDBS).

EC50 [nM]	SMILES
11.7	CC(C)c1ccc(OCC(F)(F)F)n2nc(N[C@@H]3[C@@H]4CC[C@H]3CN(c3ccnc(Cl)c3)C4)nc12
21.2	COc1cc(Nc2nc3c(C(C)C)ccc(OCC(F)(F)F)n3n2)ccc1-c1ccnc(C)c1
43.6	FC(F)(F)COc1cccc2nc(N[C@@H]3[C@@H]4CC[C@H]3CN(c3ccnc(C(F)(F)F)c3)C4)nn12
34.2	Cc1ncn(-c2ccc(Nc3nc4c(C(C)C)ccc(OCC(F)(F)F)n4n3)cc2OC(F)F)n1
34.6	Cc1cc(N2C[C@H]3CC[C@@H](C2)[C@@H]3Nc2nc3c(C(C)(C)O)ccc(O[C@@H](C)C(F)(F)F)n3n2)ncn1
21.2	COc1cc(N2C[C@H]3CC[C@@H](C2)[C@@H]3Nc2nc3c(C(C)C)ccc(OCC(F)(F)F)n3n2)cnn1
29.9	Cc1cc(N2C[C@H]3CC[C@@H](C2)[C@@H]3Nc2nc3c(C)ccc(OCC(F)(F)F)n3n2)ncn1
42.2	COc1cc(Nc2nc3c(C(C)(C)O)ccc(O[C@@H](C)C(F)(F)F)n3n2)ccc1-n1cnc(Cl)n1
38.5	Cc1cc(N2C[C@H]3CC[C@@H](C2)[C@@H]3Nc2nc3c(C(C)C)ccc(OCC(F)(F)F)n3n2)ncn1
40.5	COc1cc(Nc2nc3c(C(F)(F)F)ccc(O[C@@H](C)C(F)(F)F)n3n2)ccc1-n1cnc(C)n1
49	Cc1noc(N2C[C@H]3CC[C@@H](C2)[C@@H]3Nc2nc3c(C(C)C)ccc(O[C@@H](C)C(F)(F)F)n3n2)n1
37.3	Cc1cn(-c2ccc(Nc3nc4c(C(C)(C)O)ccc(O[C@@H](C)C(F)(F)F)n4n3)cc2C#N)cn1
13.2	CC(C)c1ccc(O[C@@H](C)C(F)(F)F)n2nc(N[C@@H]3[C@@H]4CC[C@H]3CN(c3cnnc(Cl)c3)C4)nc12
49.4	Cc1cn(-c2ccc(Nc3nc4c(C(C)C)ccc(OCC(F)(F)F)n4n3)cc2C#N)cn1
46.5	Cc1ccc(OCC(F)(F)F)n2nc(N[C@@H]3[C@@H]4CC[C@H]3CN(c3cnnc(Cl)c3)C4)nc12
20.6	Cc1ccc(OCC(F)(F)F)n2nc(N[C@@H]3[C@@H]4CC[C@H]3CN(c3ccnc(C(F)(F)F)c3)C4)nc12

EC50 [nM]	SMILES
33.2	CC(C)c1ccc(OCC(F)(F)F)n2nc(N[C@@H]3[C@@H]4CC[C@H]3CN(c3ccnc(C(F)(F)F)c3)C4)nc12
26.6	COc1cc(Nc2nc3c(C(C)C)ccc(OCC(F)(F)F)n3n2)ccc1-n1cnc(C)n1
14.2	COc1cc(N2C[C@H]3CC[C@@H](C2)[C@@H]3Nc2nc3c(C(C)C)ccc(O[C@@H](C)C(F)(F)F)n3n2)cnn1
43.2	Cc1nnc(N2C[C@H]3CC[C@@H](C2)[C@@H]3Nc2nc3c(C(C)C)ccc(O[C@@H](C)C(F)(F)F)n3n2)o1
7	Cc1cc(N2C[C@H]3CC[C@@H](C2)[C@@H]3Nc2nc3cccc(OCC(F)(F)F)n3n2)sn1
15.6	COc1cc(N2C[C@H]3CC[C@@H](C2)[C@@H]3Nc2nc3c(C)ccc(OCC(F)(F)F)n3n2)ccn1
40	C[C@H](Oc1ccc(C(C)(C)O)c2nc(N[C@@H]3[C@@H]4CC[C@H]3CN(c3cnnc(Cl)c3)C4)nn12)C(F)(F)F
25.4	COc1cc(N2C[C@H]3CC[C@@H](C2)[C@@H]3Nc2nc3c(C(C)C)ccc(OCC(F)(F)F)n3n2)ccn1
43.8	Cc1cc(N2C[C@H]3CC[C@@H](C2)[C@@H]3Nc2nc3c(C(C)(C)O)ccc(OCC(F)(F)F)n3n2)ncn1
37.4	Cc1noc(N2C[C@H]3CC[C@@H](C2)[C@@H]3Nc2nc3c(C(C)C)ccc(OCC(F)(F)F)n3n2)n1
44.8	CC(C)(O)c1ccc(OCC(F)(F)F)n2nc(N[C@@H]3[C@@H]4CC[C@H]3CN(c3ccnc(C(F)(F)F)c3)C4)nc12
23.2	CC(C)c1ccc(OCC(F)(F)F)n2nc(N[C@@H]3[C@@H]4CC[C@H]3CN(c3cnnc(Cl)c3)C4)nc12
39	COc1cc(Nc2nc3c(C(C)(C)O)ccc(O[C@@H](C)C(F)(F)F)n3n2)ccc1-n1cnc(C)n1
45.5	Cc1ncn(-c2ccc(Nc3nc4c(C(C)(C)O)ccc(OCC(F)(F)F)n4n3)cc2OC(F)F)n1
19.6	COc1cc(N2C[C@H]3CC[C@@H](C2)C3Nc2nc3c(C(C)C)ccc(O[C@@H](C)C(F)(F)F)n3n2)ccn1 (some centres not stated)
9.2	Cc1ccc(OCC(F)(F)F)n2nc(N[C@@H]3[C@@H]4CC[C@H]3CN(c3ccnc(Cl)c3)C4)nc12
